# Results as given in patent publication US20260207623A1, “USE OF ESTETROL IN HEPATICALLY IMPAIRED PATIENTS” (ESTETRA SRL, priority 2022, published 2026).
# System: post-menopausal women
# Assay: Example 2 dose-finding study: weekly frequency of moderate to severe VMS (absolute and relative change, responders)
# Assay type: in vivo, human
# Details: for Weekly frequency of moderate to severe VMS, relative change (% from baseline), Mean: section B analysis
# Text: Enrolment was approximately 18 months. Individual subject participation was up to 27 weeks: up to 6 weeks pre-screening and washout, up to 4 weeks screening and run-in period, up to 91 days (13 weeks) of E4 monohydrate or placebo treatment followed by 2 weeks (14 days) of progestin therapy and a Follow up visit 1 week after completion of progestin therapy in non-hysterectomied subjects only.
# To define the minimum effective dose (MED) of the oral dose of E4 by evaluating changes in frequency and in severity of moderate to severe vasomotor symptoms (VMS).
# This was a prospective, multicentre, randomised, placebo-controlled, double-blinded, dose-finding study.
# Eligible subjects were hysterectomied and non-hysterectomied post-menopausal women aged 40 to 65 years, inclusive, presenting at least 7 moderate to severe hot flushes/day or at least 50 moderate to severe hot flushes/week.
# All treatments (Estetrol, hereinafter E4 as monohydrate, [2.5 mg, 5 mg, 10 mg, 15 mg] capsule) were administered once daily (QD) per os for at least 12 consecutive weeks until the last biological assessments (Day 91 maximum) had been performed.
# In order to analyse the data recorded in this study, treatment groups have been compared using an ANCOVA (analysis of covariance) with respect to the change in weekly frequency of moderate to severe VMS from baseline to weeks 4 and 12. The ANCOVA model includes treatment (“trt1”) and study centre (“SITEPOOL”) as a fixed effect and baseline (“base”) as a covariate.
# VMS frequency was also studied by grouping patients according to their degree of response.
structure (smiles),measurement,setting,value
"C[C@]12CC[C@@H]3c4ccc(O)cc4CC[C@H]3[C@@H]1[C@@H](O)[C@@H](O)[C@@H]2O [E4 monohydrate, estetrol monohydrate]",Mean change from baseline in weekly frequency of moderate to severe VMS,"2.5 mg QD, week 0",0.00
same,Mean relative change (% from baseline) in weekly frequency of moderate to severe VMS,"2.5 mg QD, week 0",0%
same,Mean relative change (% from baseline) in weekly frequency of moderate to severe VMS,"2.5 mg QD, week 1",−23%
same,Mean relative change (% from baseline) in weekly frequency of moderate to severe VMS,"2.5 mg QD, week 2",−34%
same,Mean relative change (% from baseline) in weekly frequency of moderate to severe VMS,"2.5 mg QD, week 3",−44%
same,Mean relative change (% from baseline) in weekly frequency of moderate to severe VMS,"2.5 mg QD, week 4",−49%
same,Mean relative change (% from baseline) in weekly frequency of moderate to severe VMS,"2.5 mg QD, week 5",−50%
same,Mean relative change (% from baseline) in weekly frequency of moderate to severe VMS,"2.5 mg QD, week 6",−54%
same,Mean relative change (% from baseline) in weekly frequency of moderate to severe VMS,"2.5 mg QD, week 7",−57%
same,Mean relative change (% from baseline) in weekly frequency of moderate to severe VMS,"2.5 mg QD, week 8",−58%
same,Mean relative change (% from baseline) in weekly frequency of moderate to severe VMS,"2.5 mg QD, week 9",−61%
same,Mean relative change (% from baseline) in weekly frequency of moderate to severe VMS,"2.5 mg QD, week 10",−61%
same,Mean relative change (% from baseline) in weekly frequency of moderate to severe VMS,"2.5 mg QD, week 11",−60%
same,Mean relative change (% from baseline) in weekly frequency of moderate to severe VMS,"2.5 mg QD, week 12",−61%
same,Mean change from baseline in weekly frequency of moderate to severe VMS,"5 mg QD, week 0",0.00
same,Mean relative change (% from baseline) in weekly frequency of moderate to severe VMS,"5 mg QD, week 0",0%
same,Mean relative change (% from baseline) in weekly frequency of moderate to severe VMS,"5 mg QD, week 1",−23%
same,Mean relative change (% from baseline) in weekly frequency of moderate to severe VMS,"5 mg QD, week 2",−33%
same,Mean relative change (% from baseline) in weekly frequency of moderate to severe VMS,"5 mg QD, week 3",−38%
same,Mean relative change (% from baseline) in weekly frequency of moderate to severe VMS,"5 mg QD, week 4",−43%
same,Mean relative change (% from baseline) in weekly frequency of moderate to severe VMS,"5 mg QD, week 5",−47%
same,Mean relative change (% from baseline) in weekly frequency of moderate to severe VMS,"5 mg QD, week 6",−57%
same,Mean relative change (% from baseline) in weekly frequency of moderate to severe VMS,"5 mg QD, week 7",−57%
same,Mean relative change (% from baseline) in weekly frequency of moderate to severe VMS,"5 mg QD, week 8",−57%
same,Mean relative change (% from baseline) in weekly frequency of moderate to severe VMS,"5 mg QD, week 9",−59%
same,Mean relative change (% from baseline) in weekly frequency of moderate to severe VMS,"5 mg QD, week 10",−60%
same,Mean relative change (% from baseline) in weekly frequency of moderate to severe VMS,"5 mg QD, week 11",−63%
same,Mean relative change (% from baseline) in weekly frequency of moderate to severe VMS,"5 mg QD, week 12",−62%
same,Mean relative change (% from baseline) in weekly frequency of moderate to severe VMS,"10 mg QD, week 1",−21%
same,Mean relative change (% from baseline) in weekly frequency of moderate to severe VMS,"10 mg QD, week 2",−37%
same,Mean relative change (% from baseline) in weekly frequency of moderate to severe VMS,"10 mg QD, week 3",−48%
same,Mean relative change (% from baseline) in weekly frequency of moderate to severe VMS,"10 mg QD, week 4",−55%
same,Mean relative change (% from baseline) in weekly frequency of moderate to severe VMS,"10 mg QD, week 5",−60%
same,Mean relative change (% from baseline) in weekly frequency of moderate to severe VMS,"10 mg QD, week 6",−65%
same,Mean relative change (% from baseline) in weekly frequency of moderate to severe VMS,"10 mg QD, week 10",−70%
same,Mean relative change (% from baseline) in weekly frequency of moderate to severe VMS,"10 mg QD, week 11",−70%
same,Mean relative change (% from baseline) in weekly frequency of moderate to severe VMS,"10 mg QD, week 12",−72%
same,"Weekly frequency of moderate to severe VMS, relative change (% from baseline), Mean","10 mg daily, week 0",0%
same,"Weekly frequency of moderate to severe VMS, relative change (% from baseline), Mean","10 mg daily, week 1",−21%
same,"Weekly frequency of moderate to severe VMS, relative change (% from baseline), Mean","10 mg daily, week 2",−37%
same,"Weekly frequency of moderate to severe VMS, relative change (% from baseline), Mean","10 mg daily, week 3",−48%
same,"Weekly frequency of moderate to severe VMS, relative change (% from baseline), Mean","10 mg daily, week 4",−55%
same,"Weekly frequency of moderate to severe VMS, relative change (% from baseline), Mean","10 mg daily, week 5",−60%
same,"Weekly frequency of moderate to severe VMS, relative change (% from baseline), Mean","10 mg daily, week 6",−65%
same,"Weekly frequency of moderate to severe VMS, relative change (% from baseline), Mean","10 mg daily, week 7",−66%
same,"Weekly frequency of moderate to severe VMS, relative change (% from baseline), Mean","10 mg daily, week 8",−68%
same,"Weekly frequency of moderate to severe VMS, relative change (% from baseline), Mean","10 mg daily, week 9",−69%
same,"Weekly frequency of moderate to severe VMS, relative change (% from baseline), Mean","10 mg daily, week 10",−70%
same,"Weekly frequency of moderate to severe VMS, relative change (% from baseline), Mean","10 mg daily, week 11",−70%
same,"Weekly frequency of moderate to severe VMS, relative change (% from baseline), Mean","10 mg daily, week 12",−72%
same,Mean relative change (% from baseline) in weekly frequency of moderate to severe VMS,"15 mg QD, week 2",−46%
same,Mean relative change (% from baseline) in weekly frequency of moderate to severe VMS,"15 mg QD, week 3",−57%
same,Mean relative change (% from baseline) in weekly frequency of moderate to severe VMS,"15 mg QD, week 4",−67%
same,Mean relative change (% from baseline) in weekly frequency of moderate to severe VMS,"15 mg QD, week 8",−79%
same,Mean relative change (% from baseline) in weekly frequency of moderate to severe VMS,"15 mg QD, week 10",−80%
same,Mean relative change (% from baseline) in weekly frequency of moderate to severe VMS,"15 mg QD, week 11",−82%
same,Mean relative change (% from baseline) in weekly frequency of moderate to severe VMS,"15 mg QD, week 12",−84%
same,"Weekly frequency of moderate to severe VMS, relative change (% from baseline), Mean","15 mg daily, week 0",0%
same,"Weekly frequency of moderate to severe VMS, relative change (% from baseline), Mean","15 mg daily, week 1",−22%
same,"Weekly frequency of moderate to severe VMS, relative change (% from baseline), Mean","15 mg daily, week 2",−46%
same,"Weekly frequency of moderate to severe VMS, relative change (% from baseline), Mean","15 mg daily, week 3",−57%
same,"Weekly frequency of moderate to severe VMS, relative change (% from baseline), Mean","15 mg daily, week 4",−67%
same,"Weekly frequency of moderate to severe VMS, relative change (% from baseline), Mean","15 mg daily, week 5",−72%
same,"Weekly frequency of moderate to severe VMS, relative change (% from baseline), Mean","15 mg daily, week 6",−76%
same,"Weekly frequency of moderate to severe VMS, relative change (% from baseline), Mean","15 mg daily, week 7",−79%
same,"Weekly frequency of moderate to severe VMS, relative change (% from baseline), Mean","15 mg daily, week 8",−79%
same,"Weekly frequency of moderate to severe VMS, relative change (% from baseline), Mean","15 mg daily, week 9",−81%
same,"Weekly frequency of moderate to severe VMS, relative change (% from baseline), Mean","15 mg daily, week 10",−80%
same,"Weekly frequency of moderate to severe VMS, relative change (% from baseline), Mean","15 mg daily, week 11",−82%
same,"Weekly frequency of moderate to severe VMS, relative change (% from baseline), Mean","15 mg daily, week 12",−84%
same,efficacy on vasomotor parameters,two lowest doses tested (2.5 mg per day and 5 mg per day),did not show efficacy
